From patent US12291494B2, “Methods of treating fibrosis” (Nogra Pharma Limited, priority 2012, dated 2025)
“Also recorded” adds a separate entry of the source.

What was measured:
Male C57bl6 mice = experiment: CCl4-induced liver fibrosis: histology (Metavir score); format: in vivo
Experimental: Liver fibrosis was induced in Male C57bl6 mice (Charles River, l'Arbresle, France) by injection of carbon tetrachloride (CCl4). The C57bl6 mice weighed 22-25 g and were maintained in laboratory conditions for 1 week before experiment. Animals were housed 5 per cage with food and water available ad libitum.
The effectiveness of compound 34 (specific ligand of PPARg) as compared to JWH-133 (anti-fibrogenic agent) was evaluated. Compound 34 was administered orally in combination with CCl4 injections for ca. 5 weeks. Compound 34 was dosed daily at 200 uL of a 30 mM solution. JWH-133 was administered daily via intraperitoneal injections at 3 mg/kg (dose volume=100 uL). The model of liver fibrosis is induced by chronic exposure to increased dosages of CCl4 for 5 weeks. The first week, mice received an intraperitoneal injection of CCl4, resuspended in olive oil, at the dosage of 80 μl/kg of mice body weight twice a week. At week 2, 3 injections of CCl4 at the dosage of 160 μl/kg were performed every two days. At week 3, 3 injections of CCl4 at the dosage of 240 μl/kg were performed every two days. At week 4, 3 injections of CCl4 at the dosage of 320 μl/kg were performed every two days. Mice were euthanized, at week 5, 3 days after the last CCl4 administration.
The formalin-fixed liver tissue was processed and 5 μm thick paraffin sections were stained with hematoxylin and eosin (H&E) and Picrosirius red staining (specific coloration for collagen in tissue sections) to evaluate the degree of fibrosis in the liver. Each section was analyzed blindly by 3 different experimenters for the quantification of the degree of fibrosis for each lobe of the liver (5) using the Metavir score (see FIG. 2A for Metavir Score chart). The photographs seen in FIG. 2B were obtained with a 20× objective.

[1] = test system: liver biochemical parameters in the serum of mice (AST, ALT, Gamma GT, Alkaline phosphatase); experiment: Liver blood enzyme analysis in serum; format: in vivo; settings: 4 days after the last administration of CCl4
Experimental: The effect of oral administration of compound 34 (GED) and the specific CB2 agonist (JWH-133) was evaluated on different liver biochemical parameters in the serum of mice: hepatic enzymes ([…]), Gamma GT and the Alkaline phosphatase.

## COC(Cc1ccc(N)cc1)C(=O)O (racemic) [Compound 34, (±)-2-methoxy-3-(4′-aminophenyl) propionic acid]
Male C57bl6 mice; FIG. 3B
  decrease of the fibrotic score (adapted Metavir score) compared to untreated animals: 12.5%
Male C57bl6 mice; compound 34 30 mM 200 uL oral daily, JWH-133 3 mg/kg i.p. daily, CCl4 vehicle group 2.5±0.5
  mean Metavir score (FIG. 3A): 2.1±0.2
Male C57bl6 mice; result in words
  degree of fibrosis (Metavir): decrease in the degree of fibrosis from severe to moderate fibrosis
[1]
  enhancement of blood liver enzymes (AST, ALT, Alk P) / liver toxicity: not associated with any enhancement of blood liver enzymes; also recorded: without liver toxicity
